Assay results from patent US11447465B2, “Pharmaceutical compounds for treatment of medical disorders” (Achillion Pharmaceuticals, Inc., priority 2017, dated 2022).

Biological target: Human Factor D (Homo sapiens (Human), UniProt P00746)
Assay: Human Factor D Assay
Format: biochemical
Settings: Table 6; Human Factor D 80 nM, substrate Z-L-Lys-SBzl; read-out: IC5 (Stars)
Protocol: Human Factor D (purified from human serum, Complement Technology, Inc.) at 80 nM final concentration is incubated with test compound at various concentrations for 5 min at room temperature in 50 mM Tris, 1M NaCl, pH 7.5. A synthetic substrate Z-L-Lys-SBzl and DTNB (Ellman's reagent) are added to final concentrations of 100 μM each. Absorbance at 405 nm (A405) is recorded at 30 second intervals for 30 min using a microplate spectrophotometer. IC50 values are calculated by nonlinear regression of Complement Factor D reaction rates as a function of test compound concentration.

Sequence of Human Factor D (P00746 26-253): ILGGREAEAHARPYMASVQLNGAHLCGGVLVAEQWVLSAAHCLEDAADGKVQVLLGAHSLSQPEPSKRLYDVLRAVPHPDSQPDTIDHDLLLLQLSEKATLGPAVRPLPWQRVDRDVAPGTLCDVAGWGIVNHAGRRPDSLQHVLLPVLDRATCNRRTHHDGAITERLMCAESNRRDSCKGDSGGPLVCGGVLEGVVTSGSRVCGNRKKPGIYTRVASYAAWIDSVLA

| SMILES | IC50 [nM] |
| --- | --- |
| CC(=O)c1nn(CC(=O)N2C[C@H](F)C[C@H]2C(=O)Nc2cccc(Br)n2)c2ccc(O[C@@H]3CO[C@H]4[C@@H]3OC[C@H]4OC(=O)[C@@H](N)C(C)C)cc12 [Compound T-57, (3R,3aR,6R,6aR)-6-((3-acetyl-1-(2-((2S,4R)-2-((6-bromopyridin-2-yl)carbamoyl)-4-fluoropyrrolidin-1-yl)-2-oxoethyl)-1H-indazol-5-yl)oxy)hexahydrofuro[3,2-b]furan-3-yl L-valinate] | < 1000 |
| CC(=O)c1nn(CC(=O)N2C[C@H](F)C[C@H]2C(=O)Nc2nc(Br)ccc2C)c2ccc(O[C@@H]3CO[C@H]4[C@@H]3OC[C@H]4OC(=O)[C@@H](N)C(C)C)cc12 [Compound T-58, (3R,3aR,6R,6aR)-6-((3-acetyl-1-(2-((2S,4R)-2-((6-bromo-3-methylpyridin-2-yl)carbamoyl)-4-fluoropyrrolidin-1-yl)-2-oxoethyl)-lH-indazol-5-yl)oxy)hexahydrofuro[3,2-b]furan-3-yl L-valinate] | < 1000 |
| CC(=O)c1nn(CC(=O)N2[C@H](C(=O)Nc3nc(Br)ccc3C)C[C@@]3(C)C[C@@H]23)c2ccc(OCCS(=O)(=O)CC3(C)COC3)cc12 [Compound T-59, (1R,5R)-2-(2-(3-acetyl-5-(2-(((3-methyloxetan-3-yl)methyl)sulfonyl)ethoxy)-1H-indazol-1-yl)acetyl)-N-(6-bromo-3-methylpyridin-2-yl)-5-methyl-2-azabicyclo[3.1.0]hexane-3-carboxamide] | < 1000 |
| CS(=N)(=O)COc1ccc2c(C(N)=O)nn(CC(=O)N3C[C@H](F)C[C@H]3C(=O)Nc3cccc(-c4ccccc4Cl)c3F)c2c1 (stereo partly drawn) [Compound T-60, 1-(2-((2S,4R)-2-((2′-chloro-2-fluoro-[1,1′-biphenyl]-3-yl)carbamoyl)-4-fluoropyrrolidin-1-yl)-2-oxoethyl)-6-((S-methylsulfonimidoyl)methoxy)-1H-indazole-3-carboxamide] | < 1000 |
| C/S(COc1ccc2c(C(N)=O)nn(CC(=O)N3C[C@H](F)C[C@H]3C(=O)Nc3cccc(-c4ccccc4Cl)c3F)c2c1)=N\C#N (stereo partly shown) [Compound T-61] | < 1000 |
| CS(=O)(COc1ccc2c(C(N)=O)nn(CC(=O)N3C[C@H](F)C[C@H]3C(=O)Nc3cccc(-c4ccccc4Cl)c3F)c2c1)=NC#N (stereo partly shown) [Compound T-62] | < 1000 |
| CC(=O)O[C@@H]1CO[C@H]2[C@@H]1OC[C@H]2Oc1ccc2c(c1)c(C(C)=O)nn2CC(=O)N1C[C@H](F)C[C@H]1C(=O)Nc1cccc(Br)n1 [Compound T-63, (3R,3aR,6R,6aR)-6-((3-acetyl-1-(2-((2S,4R)-2-((6-bromopyridin-2-yl)carbamoyl)-4-fluoropyrrolidin-1-yl)-2-oxoethyl)-1H-indazol-5-yl)oxy)hexa-hydrofuro[3,2-b]furan-3-yl acetate] | < 1000 |

Same assay, conditions: Table 7; read-out: IC5 (Stars)

| SMILES | IC50 [nM] |
| --- | --- |
| Cc1ccc(Br)nc1NC(=O)[C@@H]1C[C@@]2(C)C[C@H]2N1C(=O)Cn1nc(C(N)=O)c2cc(NC(=O)C3CCCC3(F)F)ccc21 (stereo partly drawn) [Compound T-65, 1-(2-((1R,3S,5R)-3-((6-bromo-3-methylpyridin-2-yl)carbamoyl)-5-methyl-2-azabicyclo[3.1.0]hexan-2-yl)-2-oxoethyl)-5-(2,2-difluorocyclopentane-1-carboxamido)-1H-indazole-3-carboxamide] | < 1000 |
| CC(=O)c1nn(CC(=O)N2[C@H](C(=O)Nc3nc(Br)ccc3C)C[C@@]3(C)C[C@@H]23)c2c(C)cc(NC(=O)C3CCCC3(F)F)cc12 (stereo partly drawn) [Compound T-66, (1R,3S,5R)-2-(2-(3-acetyl-5-(2,2-difluorocyclopentane-1-carboxamido)-7-methyl-1H-indazol-1-yl)acetyl)-N-(6-bromo-3-methylpyridin-2-yl)-5-methyl-2-azabicyclo[3.1.0]hexane-3-carboxamide] | < 1000 |
| CC(=O)c1nn(CC(=O)N2[C@H](C(=O)NCc3cccc(Cl)c3F)C[C@@]3(C)C[C@@H]23)c2c(C)cc(NC(=O)N3CCCC(F)(F)C3)cc12 [Compound T-67, (1R,3S,5R)-2-(2-(3-acetyl-5-(3,3-difluoropiperidine-1-carboxamido)-7-methyl-1H-indazol-1-yl)acetyl)-N-(3-chloro-2-fluorobenzyl)-5-methyl-2-azabicyclo[3.l.0]hexane-3-carboxamide] | < 1000 |
| CC(=O)c1nn(CC(=O)N2[C@H](C(=O)NCc3cccc(Cl)c3F)C[C@@]3(CNC(=O)COCCOCCNC(=O)COCCOCCNC(=O)CC[C@H](NC(=O)CCCCCCCCCCCCCCCCC(=O)O)C(=O)O)C[C@@H]23)c2c(C)cc(NC(=O)N3CCCC(F)(F)C3)cc12 [Compound T-68, (S)-1-((1R,3S,5R)-2-(2-(3-acetyl-5-(3,3-difluoropiperidine-1-carboxamido)-7-methyl-1H-indazol-1-yl)acetyl)-3-((3-chloro-2-fluorobenzyl)carbamoyl)-2-azabicyclo[3.1.0]hexan-5-yl)-24-carboxy-3,12,21,26-tetraoxo-5,8,14,17-tetraoxa-2,11,20,25-tetraazatritetracontan-43-oic acid] | < 1000 |
| Cc1ccc(Br)nc1NC(=O)[C@@H]1C[C@@]2(CNC(=O)COCCOCCNC(=O)COCCOCCNC(=O)CC[C@H](NC(=O)CCCCCCCCCCCCCCCCC(=O)O)C(=O)O)C[C@H]2N1C(=O)Cn1nc(C(N)=O)c2cc(Nc3cccnc3)ccc21 [Compound T-71, (S)-1-((1R,3S,5R)-3-((6-bromo-3-methylpyridin-2-yl)carbamoyl)-2-(2-(3-carbamoyl-5-(pyridin-3-ylamino)-1H-indazol-1-yl)acetyl)-2-azabicyclo[3.1.0]hexan-5-yl)-24-carboxy-3,12,21,26-tetraoxo-5,8,14,17-tetraoxa-2,11,20,25-tetraazatritetracontan-43-oic acid] | < 1000 |
| CCOP(=O)(CC)COc1ccc2c(C(C)=O)nn(CC(=O)N3C[C@H](F)C[C@H]3C(=O)Nc3nc(Br)ccc3C)c2c1 (stereo partly drawn) [Compound T-77, ethyl (((3-acetyl-1-(2-((2S,4R)-2-((6-bromo-3-methylpyridin-2-yl)carbamoyl)-4-fluoropyrrolidin-1-yl)-2-oxoethyl)-1H-indazol-6-yl)oxy)methyl)(ethyl)phosphinate] | < 1000 |
| CCOP(=O)(COc1ccc2c(C(C)=O)nn(CC(=O)N3C[C@H](F)C[C@H]3C(=O)Nc3nc(Br)ccc3C)c2c1)OCC [Compound T-78, diethyl (((3-acetyl-1-(2-((2S,4R)-2-((6-bromo-3-methylpyridin-2-yl)carbamoyl)-4-fluoropyrrolidin-1-yl)-2-oxoethyl)-1H-indazol-6-yl)oxy)methyl)phosphonate] | < 1000 |
| CCP(=O)(O)COc1ccc2c(C(C)=O)nn(CC(=O)N3C[C@H](F)C[C@H]3C(=O)Nc3nc(Br)ccc3C)c2c1 [Compound T-79, (((3-acetyl-1-(2-((2S,4R)-2-((6-bromo-3-methylpyridin-2-yl)carbamoyl)-4-fluoropyrrolidin-1-yl)-2-oxoethyl)-1H-indazol-6-yl)oxy)methyl)(ethyl)phosphinic acid] | < 1000 |
| CC(=O)c1nn(CC(=O)N2[C@H](C(=O)Nc3nc(Br)ccc3C)C[C@@]3(Cn4cc(C5CC5)nn4)C[C@@H]23)c2cnccc12 [Compound T-83, (1R,3S,5R)-2-(2-(3-acetyl-1H-pyrazolo[3,4-c]pyridin-1-yl)acetyl)-N-(6-bromo-3-methylpyridin-2-yl)-5-((4-cyclopropyl-1H-1,2,3-triazol-1-yl)methyl)-2-azabicyclo[3.1.0]hexane-3-carboxamide] | < 1000 |
